Here are results for 25 molecules from patent publication US9763942B2, “Serine/threonine kinase inhibitors” (Array BioPharma Inc., priority 2013, dated 2017).

By IC50 is commonly meant the concentration that gives 50% inhibition.

In this assay the target is T1, human ERK-2 (Mitogen Activated Kinase 1) (Homo sapiens, UniProt P28482).
T1 construct: n-terminal 6-His fusion protein in E. coli and corresponding to aa 8-360; 6-His (N); made in house; host or cells: E. coli
The assay can be described thus: ERK-2 Enzymatic Assay. Type of assay: biochemical. The conditions noted are these: ERK-2 enzymatic assay; read-out: IC50. An excerpt: Table 1 contains representative data for Examples disclosed herein.

T1 sequence (P28482 8-360): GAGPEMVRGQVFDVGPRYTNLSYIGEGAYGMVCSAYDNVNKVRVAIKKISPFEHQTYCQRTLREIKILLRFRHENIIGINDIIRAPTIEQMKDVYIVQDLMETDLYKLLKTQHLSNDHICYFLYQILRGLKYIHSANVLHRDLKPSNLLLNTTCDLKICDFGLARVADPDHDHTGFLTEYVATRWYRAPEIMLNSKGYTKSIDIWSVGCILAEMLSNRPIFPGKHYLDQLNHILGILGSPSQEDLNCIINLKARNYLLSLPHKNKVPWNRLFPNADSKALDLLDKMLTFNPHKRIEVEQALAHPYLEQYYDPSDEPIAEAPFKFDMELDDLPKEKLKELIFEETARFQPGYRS

`Cn1nccc1Nc1nccc(-c2ccc3c(c2)nnn3CC2CN(C(=O)OC(C)(C)C)C2)n1` [Example 63, tert-butyl 3-((5-(2-((1-methyl-1H-pyrazol-5-yl)amino)pyrimidin-4-yl)-1H-benzo[d][1,2,3]triazol-1-yl)methyl)azetidine-1-carboxylate]: the half-maximal inhibitory concentration (IC50) is less than 0.1 µM.
Consider `COc1ccc(Cn2nnc3cc(-c4ccnc(Nc5cc(C6CC6)nn5C)n4)ccc32)cc1F` [Example 25, N-(3-cyclopropyl-1-methyl-1H-pyrazol-5-yl)-4-(1-(3-fluoro-4-methoxybenzyl)-1H-benzoyl[d][1,2,3]triazol-5-yl)pyrimidin-2-amine], for which the IC50 is less than 0.1 µM.
Turning to `Cn1nccc1Nc1nccc(-c2ccc3c(c2)nnn3[C@H](CO)c2ccc(Cl)c(F)c2)n1` [Example 93, (S)-2-(4-chloro-3-fluorophenyl)-2-(5-(2-((1-methyl-1H--pyrazol-5-yl)amino)pyrimidin-4-yl)-1H-benzo[d][1,2,3]triazol-1-yl)ethanol], the 50% inhibitory concentration (IC50) is less than 0.1 µM.
Under `COCCN1C[C@H](c2ccc(F)cc2)[C@@H](n2nnc3cc(-c4ccnc(Nc5ccnn5C)n4)ccc32)C1` [Example 83, 4-(1-((3R,4S)-4-(4-fluorophenyl)-1-(2-methoxyethyl)pyrrolidin-3-yl)-1H-benzo[d][1,2,3]triazol-5-yl)-N-(1-methyl-1H-pyrazol-5-yl)pyrimidin-2-amine] stands less than 0.1 µM; under `Cn1nccc1Nc1nccc(-c2ccc3c(c2)nnn3Cc2cccc(F)c2)n1` [Example 120, 4-(1-(3-fluorobenzyl)-1H-benzo[d][1,2,3]triazol-5-yl)-N-(1-methyl-1H-pyrazol-5-yl)pyrimidin-2-amine], less than 0.1 µM.
In the case of `CN1C[C@@H](n2nnc3cc(-c4ccnc(Nc5ccnn5C)n4)ccc32)[C@H](c2cc(F)cc(F)c2)C1` [Example 76, 4-(1-((3S,4R)-4-(3,5-difluorophenyl)-1-methylpyrrolidin-3-yl)-1H-benzo[d][1,2,3]triazol-5-yl)-N-(1-methyl-1H-pyrazol-5-yl)pyrimidin-2-amine], the IC50 was less than 0.1 µM.
On to `COc1ncccc1Cn1nnc2cc(-c3ccnc(Nc4ccnn4C)c3)ccc21` [Example 54, 4-(1-((2-methoxypyridin-3-yl)methyl)-1H-benzo[d][1,2,3]triazol-5-yl)-N-(1-methyl-1H-pyrazol-5-yl)pyridin-2-amine], for which the IC50 was less than 0.1 µM.
As for `CCC(C)Cn1nnc2cc(-c3ccnc(N[C@@H](C)CO)n3)ccc21` (stereo partly drawn) [Example 98, (2S)2-((4-(1-(2-methylbutyl)-1H-benzo[d][1,2,3]triazol-5-yl)pyrimidin-2-yl)amino)propan-1-ol], the IC50 was less than 0.1 µM.
To `Clc1ccc(Cn2nnc3cc(-c4ccnc(NC5CCOCC5)n4)ccc32)cc1` [Example 112] belongs less than 0.1 µM; to `COc1ccc(Cn2nnc3cc(-c4ccnc(Nc5nnc(C)s5)n4)ccc32)cc1F` [Example 11, N-(4-(1-(3-fluoro-4-methoxybenzyl)-1H-benzol[d][1,2,3]triazol-5-yl)pyrimidin-2-yl)-5-methyl-1,3,4-thiadiazol-2-amine], less than 0.1 µM.
To `Cn1ccc(Cn2nnc3cc(-c4ccnc(Nc5ccnn5C)n4)ccc32)n1` [Example 32, 4-(1-((1-methyl-1H-pyrazol-3-yl)methyl)-1H-benzo[d][1,2,3]triazol-5-yl)-N-(1-methyl-1H-pyrazol-5-yl)pyrimidin-2-amine] belongs less than 0.1 µM; to `COc1ccc(Cn2nnc3cc(-c4ccnc(NC5CCC5)n4)ccc32)cc1F` [Example 12, N-cyclobutyl-4-(1-(3-fluoro-4-methoxybenzyl)-1H-benzo[d][1,2,3]triazol-5-yl)pyrimidin-2-amine], less than 0.1 µM; to `Cn1nccc1Nc1nccc(-c2ccc3c(c2)nnn3Cc2cccc(C(F)(F)F)n2)n1` [Example 52, N-(1-methyl-1H-pyrazol-5-yl)-4-(1-((6-(trifluoromethyl)pyridin-2-yl)methyl)-1H-benzo[d][1,2,3]triazol-5-yl)pyrimidin-2-amine], less than 0.1 µM.
To `COCCCn1nnc2cc(-c3ccnc(Nc4ccnn4C)n3)ccc21` [Example 42, 4-(1-(3-methoxypropyl)-1H-benzo[d][1,2,3]triazol-5-yl)-N-(1-methyl-1H-pyrazol-5-yl)pyrimidin-2-amine] belongs less than 0.1 µM.
Regarding `Cn1nccc1Nc1nccc(-c2ccc3c(c2)nnn3[C@@H](CO)c2ccc(Cl)c(F)c2)n1` [Example 94, (R)-2-(4-chloro-3-fluorophenyl)-2-(5-(2-((1-methyl-1H-pyrazol-5-yl)amino)pyrimidin-4-yl)-1H-benzo[d][1,2,3]triazol-1-yl)ethanol], the 50% inhibitory concentration (IC50) was less than 0.1 µM.
In the case of `COc1ccc(Cn2nnc3cc(-c4ccnc(NCC5CC5)n4)ccc32)cc1F` [Example 14, N-(cyclopropylmethyl)-4-(1-(3-fluoro-4-methoxybenzyl)-1H-benzo[d][1,2,3]triazol-5-yl)pyrimidin-2-amine], the IC50 was less than 0.1 µM.
Take `COc1ccc([C@@H](CO)n2nnc3cc(-c4ccnc(Nc5ccnn5C)n4)ccc32)cc1F` [Example 95, (S)-2-(3-fluoro-4-methoxyphenyl)-2-(5-(2-((1-methyl-1H-pyrazol-5-yl)amino)pyrimidin-4-yl)-1H-benzo[d][1,2,3]triazol-1-yl)ethanol]: the IC50 was less than 0.1 µM.
To `Cn1nccc1Nc1nccc(-c2ccc3c(c2)nnn3[C@@H]2CNC[C@H]2c2ccc(F)c(F)c2)n1` [Example 78, 4-(1-((3S,4R)-4-(3,4-difluorophenyl)pyrrolidin-3-yl)-1H-benzo[d][1,2,3]triazol-5-yl)-N-(1-methyl-1H-pyrazol-5-yl)pyrimidin-2-amine] belongs less than 0.1 µM; to `COCCN1C[C@@H](n2nnc3cc(-c4ccnc(Nc5ccnn5C)n4)ccc32)[C@H](c2ccc(F)cc2)C1` [Example 87, 4-(1-((3S,4R)-4-(4-fluorophenyl)-1-(2-methoxyethyl)pyrrolidin-3-yl)-1H-benzo[d][1,2,3]triazol-5-yl)-N-(1-methyl-1H-pyrazol-5-yl)pyrimidin-2-amine], less than 0.1 µM; to `Cn1nccc1Nc1nccc(-c2cnc3c(c2)nnn3Cc2ccc(Cl)c(F)c2)n1` [Example 119, 4-(3-(4-chloro-3-fluorobenzyl)-3H-(1,2,3]triazolo[4,5-b]pyridin-6-yl)-N-(1-methyl-1H-pyrazol-5-yl)pyrimidin-2-amine], less than 0.1 µM.
In the case of `Cn1nccc1Nc1nccc(-c2ccc3c(c2)nnn3CC(C)(C)O)n1` [Example 60, 2-methyl-1-(5-(2-((1-methyl-1H-pyrazol-5-yl)amino)pyrimidin-4-yl)-1H-benzo[d][1,2,3]triazol-1-yl)propan-2-ol], the half-maximal inhibitory concentration (IC50) was less than 0.1 µM.
In the case of `COc1ccc(Cn2nnc3cc(-c4ccnc(NC5(C)COC5)n4)ccc32)cc1F` [Example 21, 4-(1-(3-fluoro-4-methoxybenzyl)-1H-benzo[d][1,2,3]triazol-5-yl)-N-(3-methyloxetan-3-yl)pyrimidin-2-amine], the IC50 is less than 0.1 µM.
For `CC(C)N1CC(n2nnc3cc(-c4ccnc(Nc5ccnn5C)n4)ccc32)[C@H](c2cc(F)cc(F)c2)C1` (stereo partly shown) [Example 80], the IC50 was less than 0.1 µM.
Under `COc1ccc(Cn2nnc3cc(-c4ccnc(NCC(C)(C)CO)n4)ccc32)cc1F` [Example 16] stands less than 0.1 µM.
As to `Cn1nccc1Nc1nccc(-c2ccc3c(c2)nnn3CCc2cccc(Cl)c2)n1` [Example 50, 4-(1-(3-chlorophenethyl)-1H-benzo[d][1,2,3]triazol-5-yl)-N-(1-methyl-1H-pyrazol-5-yl)pyrimidin-2-amine], the IC50 was less than 0.1 µM.
